Assays:
in vitro = settings: for P450 enzyme catalyzing the metabolism: microsomes; for Vmax for metabolism: Table 1 Vmax 1
Experimental: Mohutsky M, Wrighton S, Ring B. In vitro metabolism: subcellular fractions. In: Pearson P, Wienkers L, editors. Handbook of drug metabolism. New York: Informa Healthcare; 2009. pp. 445-464. […] The incubation was conducted at various time points 0-60 min at 37° C. At the end of incubation, the reactions were quenched, processed, and analyzed by LC-MS/MS.

[1] = molecular target: T1, progesterone receptor (PR) (Homo sapiens, UniProt P06401); assay: PRE-luciferase reporter assay in 293T and WMPY cells transfected with PR; format: cell-based; settings: 100 nM
T1 construct: expressed in transfected cells; host or cells: 293T (human embryonic kidney cells) and WMPY (prostatic stromal cell line)
T1 sequence (P06401 1-933): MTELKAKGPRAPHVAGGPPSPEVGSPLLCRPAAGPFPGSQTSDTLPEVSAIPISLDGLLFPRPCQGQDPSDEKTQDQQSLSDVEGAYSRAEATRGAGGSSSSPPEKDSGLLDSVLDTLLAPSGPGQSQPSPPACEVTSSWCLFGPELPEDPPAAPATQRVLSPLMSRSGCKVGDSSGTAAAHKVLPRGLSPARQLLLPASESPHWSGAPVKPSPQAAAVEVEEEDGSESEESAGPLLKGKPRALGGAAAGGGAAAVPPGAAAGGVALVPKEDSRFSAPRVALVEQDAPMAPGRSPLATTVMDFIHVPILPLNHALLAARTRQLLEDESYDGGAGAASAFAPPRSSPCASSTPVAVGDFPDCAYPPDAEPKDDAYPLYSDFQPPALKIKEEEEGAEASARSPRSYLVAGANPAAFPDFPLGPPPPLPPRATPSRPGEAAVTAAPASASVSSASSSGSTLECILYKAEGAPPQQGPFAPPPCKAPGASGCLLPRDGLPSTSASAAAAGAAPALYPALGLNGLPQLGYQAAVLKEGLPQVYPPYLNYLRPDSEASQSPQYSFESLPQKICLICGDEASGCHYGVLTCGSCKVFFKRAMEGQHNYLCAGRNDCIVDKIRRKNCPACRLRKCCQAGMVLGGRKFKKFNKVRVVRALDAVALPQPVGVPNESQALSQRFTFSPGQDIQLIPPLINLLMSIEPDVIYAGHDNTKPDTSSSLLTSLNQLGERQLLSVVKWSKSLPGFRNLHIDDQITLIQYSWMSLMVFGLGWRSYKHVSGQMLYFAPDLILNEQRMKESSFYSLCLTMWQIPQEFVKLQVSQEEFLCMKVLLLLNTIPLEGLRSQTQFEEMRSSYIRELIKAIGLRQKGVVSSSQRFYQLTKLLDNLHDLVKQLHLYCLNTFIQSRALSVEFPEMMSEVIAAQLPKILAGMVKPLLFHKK
Experimental: 293T and WMPY cells were transfected with progesterone receptor (PR) and PRE-luciferase reporter. […] Experiments were repeated in triplicate. […] Because of the metabolic stability of M1 compared to ONA, a blood circulation of 100 nM M1 can be achieved after dosing M1 at 1 mg.

[2] = Concentration in blood circulation after dosing
[3] = format: in vitro ADME, human
From the text: In: Pearson P, Wienkers L, editors. Handbook of drug metabolism. New York: Informa Healthcare; 2009. pp. 445-464.

[4] = Metabolite profile by LC-MS in pooled urine of chimeric mice with humanized liver after repeated oral onapristone; format: in vivo; settings: onapristone 30 mg/kg/day, D11
Experimental: Metabolites were identified using liquid chromatography-mass spectrometry (LC-MS) and mass spectroscopy on pooled plasma, urine, and liver samples. Twenty-seven metabolites were identified in urine samples across dose and sampling time (e.g., 0-24 hours of dosing for each time point).
Mice with humanized livers were generated as described by Meuleman et al., Hepatology 2005, 41 (4):847-856. This humanized liver model is routinely used to assess the metabolism and toxicities of drugs. Kamimura H, Nakada N, Suzuki K, et al. Assessment of chimeric mice with humanized liver as a tool for predicting circulating human metabolites. Drug Metab Pharmacokinet 2010;25(3):223-235. Two weeks following birth, mice were transplanted with primary hepatocytes isolated from the liver of a donor (purchased from BD Genetest). All animals were housed and kept under standard animal protocols. Animals also were observed during the experiment for signs of illness, abnormal behavior and appearance, and any sign of toxicity, or mortality. Animals were treated orally by gavage with 0, 10, and 30 mg/kg of drug once a day up to 31 days. At the end of treatments, blood samples, urine, and liver were collected and processed for LC-MS/MS metabolite identification and profiling. […]

Compound	P450 enzyme catalyzing the metabolism (in vitro; both, human)	Vmax 1 (in vitro; female human liver microsomes) [pmol/min/mg]	Vmax 2 (in vitro; female human liver microsomes) [pmol/min/mg]	Vmax for metabolism (in vitro; females)	Km (in vitro; human, Km 1) [µM]	Km (in vitro; human, Km 2) [µM]	Vmax 1 (in vitro; male human liver microsomes) [pmol/min/mg]	Vmax 2 (in vitro; male human liver microsomes) [pmol/min/mg]	Km (in vitro; male, human, Km 1) [µM]	Km (in vitro; male, human, Km 2) [µM]	Vmax for metabolism (in vitro; males)	inhibition of PR transcriptional activity [1]	concentration that can be achieved in blood circulation ([2]; after dosing M1 at 1 mg, inferred from metabolic stability of M1) [nM]	concentration achieved in blood circulation ([2]; after dosing onapristone at 10 mg QD) [nM]	P450 enzyme catalyzing the metabolism (in vitro)	number of metabolites formed in vitro [3]	metabolite detected by LC-MS in urine [4]
CNc1ccc([C@H]2C[C@]3(C)[C@@H](CC[C@]3(O)CCCO)[C@@H]3CCC4=CC(=O)CCC4=C32)cc1 [Metabolite M1, (8S, 11R,13R,14S,17S)-17-hydroxy-17-(3-hydroxypropyl)-13-methyl-11-(4-(methylamino)phenyl)-6,7,8,11,12,13,14,15,16,17-decahydro-1H-cyclopenta[a]phenanthren-3(2H)-one]	CYP3A and CYP2C	106	738	106 pmol/min/mg microsomal protein	0.75	175	72	748	0.96	129	72 pmol/min/mg microsomal protein	fully inhibit	100	10			
CN(C)c1ccc([C@H]2C[C@]3(C)[C@@H](CC[C@]3(O)CCCO)[C@@H]3CCC4=CC(=O)CCC4=C32)cc1 [onapristone, Onapristone, reference compound]		1517	8715	1517 pmol/min/mg microsomal protein			1292	7213			1292 pmol/min/mg microsomal protein	fully inhibit			CYP3A	nine	Ls
